Experimental data as given in EP4733300A1, “NOVEL CHROMENE-BENZIMIDAZOLE DERIVATIVE OR PHARMACEUTICALLY ACCEPTABLE SALT THEREOF, AND USE THEREOF” (Korea University Research and Business Foundation, priority 2023, dated 2024).
pIC50: −log10 of the molar value. Where two headings read alike, the source gives them in different places.

Columns and labels:
MDA-MB-231 [1] = experiment: MTS assay cell viability, MDA-MB-231; type: cell-based; settings: Homo sapiens, read-out: IC50 values according to the cell viability inhibition
Procedure: MDA-MB-231 (Cell seeding numbers: 0.8(M231) x 10^4 cells/wells (confluency ≧ 25%), which is a human triple-negative breast cancer (TNBC) cell line, and JIMT-1 (Cell seeding numbers: 0.8(JIMT) x 10^4 cells/wells (confluency ≧ 25%)), which is a HER2 positive breast cancer (HER2+ BC) cell line, were used in the experiment.
The above cell lines were cultured in Dulbecco's modified Eagle's medium (DMEM) containing 10% fetal bovine serum (FBS), streptomycin-penicillin (100 U/mL), and Fungizone (0.625 µg/mL) at 5% CO2 and 37°C.
(§1) The human breast cancer cell lines MDA-MB-231 and JIMT-1 were treated with chromene-benzimidazole derivatives of Formulas 1-1 to 1-53 at various concentrations of 0, 1, and 5 µM, respectively, for 72 hours, and then cell viability was measured using the MTS assay technique. In the MTS assay, cells were attached to a 96-well plate for 24 hours, treated with the chromene-benzimidazole derivative for 72 hours, developed with MTS (3-(4,5-dimethylthiazol-2-yl)-5-(3-carboxymethoxyphenyl)-2-(4-sulfophenyl)-2H-tetrazolium) for 4 hours, and then the absorbance was measured at 490 nm using a Spectramax Plus384 microplate analyzer.
(§2) After treating the triple-negative breast cancer cell lines MDA-MB-231 and BT549 with the chromene-benzimidazole derivative Compound (1-1) by concentration (0, 0.01, 0.05, 0.1, 0.5, 1, 5, 10, 20, and 40 µM) for 72 hours, concentration-dependent cell viability (MTS assay) inhibition and IC50 values according to the cell viability inhibition were confirmed and shown in FIGS. 7A and 7B.
The […] MDA-MB-231 and […] were treated with the chromene-benzimidazole derivative compounds (1-13, 1-19, and 1-22) by concentration (0, 0.01, 0.05, 0.1, 0.25, 0.5, 1, 2, and 5 µM) for 72 hours. Detailed treatment conditions were the same as disclosed in Example 2.1. Concentration-dependent cell viability (MTS assay) inhibition and IC50 values according to the cell viability inhibition were confirmed and shown in FIG. 9.
After treating the triple-negative breast cancer cell line MDA-MB-231 with the chromene-benzimidazole derivative compounds (1-9, 1-10, 1-11, 1-15, 1-16, and 1-17) by concentration (0, 0.01, 0.05, 0.1, 0.25, 0.5, 1, 2, and 5 µM) for 72 hours, concentration-dependent cell viability (MTS assay) inhibition and IC50 values according to the cell viability inhibition were confirmed and shown in FIG. 13. […]

BT549 [2] = experiment: Annexin V/PI staining flow cytometry, BT549; type: cell-based
From the text: (§3) The degree of apoptosis of MDA-MB-231 and BT549 cells by the compound of Formula 1-1 was confirmed by a flow cytometer through Annexin V/PI staining, which is shown in FIG. 7D.

BT549 [3] = experiment: MTS assay cell viability, BT549; type: cell-based; settings: Homo sapiens, BT-549, 72 hours, read-out: IC50 values according to the cell viability inhibition
Procedure: as §1, §2

MDA-MB-231 [4] = experiment: Morphological changes of cells by optical microscope, MDA-MB-231; type: cell-based, human; settings: 72 hours; for morphological changes of cells: 0.5 µM
Procedure: (§4) After treating the MDA-MB-231 and BT549 cell lines with the 1-1 compound by concentration (0, 5, 10, and 20 µM) for 72 hours, morphological changes of cells were observed using an optical microscope, which is shown in FIG. 7C.
Subsequently, an experiment was performed as follows to confirm the targeting ability for Compounds 1-13 and 1-22. After treating the MDA-MB-231 cell line with the 1-22 and 1-13 compounds at a concentration of 0.5 µM for 72 hours, morphological changes of cells were observed using an optical microscope, and micrographs are shown in FIG. 10A. […] In addition, after treating MDA-MB-231 with the 1-22 and 1-13 compounds at a concentration of 0.5 µM for 72 hours, expression of HSP90 chaperon complexes (HSP90, HSP70, HSP27, HSF-1), HSP90 client proteins (EGFR, AKT, JAK2, STAT3), Tubulin targeting ability (Tubulin, mitosis marker p-His H3), and apoptosis-related factors (Cleaved caspase-7, Survivin, Mcl-1) proteins was confirmed using a Western blot technique, which is shown in FIG. 10B.

BT549 [5] = experiment: Morphological changes of cells by optical microscope, BT549; type: cell-based; settings: 0, 5, 10, and 20 µM, 72 hours
Procedure: as §4

BT549 [6] = experiment: Propidium iodide DNA content flow cytometry (cell cycle), BT549; type: cell-based; settings: 0, 5, 10, and 20 µM, 72 hours
[7] = tested on: STAT3, c-MET, ERK, and AKT; experiment: Western blot of HSP90 client proteins in MDA-MB-231; type: cell-based, human; settings: 0, 5, 10, and 20 µM, 72 hours
MDA-MB-231 [8] = experiment: Annexin V/PI staining flow cytometry, MDA-MB-231; type: cell-based, human
From the text: as §3

tubulin = experiment: Western blot of tubulin and apoptosis-related proteins in MDA-MB-231; type: cell-based, human; settings: 0, 5, 10, and 20 µM, 72 hours
Procedure: Subsequently, after treating the MDA-MB-231 cell line with the compound of Formula 1-1 by concentration (0, 5, 10, and 20 µM) for 72 hours, degradation of tubulin and expression of apoptosis-related proteins were confirmed by Western blot, which is shown in FIG. 8C.

[9] = tested on: C-terminal domain of Hsp90; experiment: Hsp90 C-terminal activity by binding analysis with C recombinant protein; settings: compared to Novobiocin
From the text: In order to evaluate the ability to inhibit the C-terminal domain of Hsp90, it was attempted to evaluate the ability to inhibit Hsp90 C-terminal activity through analysis of binding force between the 1-1 compound, a C-terminal Hsp90 inhibitor Novobiocin, and an N-terminal inhibitor Onalespib, and a C recombinant protein.

[10] = tested on: liver cancer cell line HepG2; experiment: MTS assay cell viability, HepG2; type: cell-based; settings: 0, 0.1, 0.5, 1, 5, and 10 µM, 72 hours
Procedure: (§5) After treating a hematologic cancer cell line HL-60, a liver cancer cell line HepG2, a lung cancer cell line H1299, a colorectal cancer cell line HCT116, and an ovarian cancer cell line SKOV3 with the chromene-benzimidazole derivative compound 1-22 by concentration (0, 0.1, 0.5, 1, 5, and 10 µM) for 72 hours, concentration-dependent cell viability (MTS assay) inhibition and IC50 values according to the cell viability inhibition were confirmed and shown in FIG. 11.

[11] = tested on: lung cancer cell line H1299; experiment: MTS assay cell viability, H1299; type: cell-based; settings: 0, 0.1, 0.5, 1, 5, and 10 µM, 72 hours
Procedure: as §5

[12] = tested on: hematologic cancer cell line HL-60; experiment: MTS assay cell viability, HL-60; type: cell-based; settings: 0, 0.1, 0.5, 1, 5, and 10 µM, 72 hours
Procedure: as §5

[13] = tested on: ovarian cancer cell line SKOV3; experiment: MTS assay cell viability, SKOV3; type: cell-based; settings: 0, 0.1, 0.5, 1, 5, and 10 µM, 72 hours
Procedure: as §5

[14] = tested on: colorectal cancer cell line HCT116; experiment: MTS assay cell viability, HCT116; type: cell-based; settings: 0, 0.1, 0.5, 1, 5, and 10 µM, 72 hours
Procedure: as §5

[15] = MDA-MB-231 and JIMT-1 treated, cell line of the values not given, 72 hours

COc1c(NC(=O)Nc2ccc3[nH]c(-c4ccc(F)cc4)nc3c2)ccc2c1C=CC(C)(C)O2 [Compound 1-9, 1-(2-(4-fluorophenyl)-1H-benzo[d]imidazol-5-yl)-3-(5-methoxy-2,2-dimethyl-2H-chromen-6-yl)urea]
pIC50 (MDA-MB-231 [1]; MDA-MB-231, 72 hours): 6.56

COc1c(NC(=O)Nc2ccc3[nH]c(Cl)nc3c2)ccc2c1C=CC(C)(C)O2 [Compound 1-1, 1-(2-chloro-1H-benzo[d]imidazol-5-yl)-3-(5-methoxy-2,2-dimethyl-2H-chromen-6-yl)urea]
degree of apoptosis (BT549 [2]): early and late apoptosis were induced
pIC50 (BT549 [3]): 5.07
morphological changes of cells (apoptosis) (MDA-MB-231 [4]; 0, 5, 10, and 20 µM): apoptosis was induced in a concentration-dependent manner
morphological changes of cells (apoptosis) (BT549 [5]): apoptosis was induced in a concentration-dependent manner
pIC50 (MDA-MB-231 [1]; MDA-MB-231, 72 hours): 5.25
cell cycle (DNA content) (BT549 [6]): G2/M phase cell cycle arrest
protein expression and phosphorylation of HSP90 client proteins [7]: decreases in protein expression and phosphorylation of STAT3, c-MET, ERK, and AKT
degree of apoptosis (MDA-MB-231 [8]): early and late apoptosis were induced
degradation of tubulin / tubulin polymerization reaction (tubulin): could inhibit a tubulin polymerization reaction
C-terminal HSP90 activity [9]: lowered C-terminal HSP90 activity to less than half compared to the existing Novobiocin

COc1c(NC(=O)Nc2ccc3[nH]c(-c4ccc(C#N)cc4)nc3c2)ccc2c1C=CC(C)(C)O2 [Compound 1-13, 1-(2-(4-cyanophenyl)-1H-benzo[d]imidazol-5-yl)-3-(5-methoxy-2,2-dimethyl-2H-chromen-6-yl)urea]
cell viability inhibition [10]: effective cell viability inhibition
cell viability inhibition [11]: effective cell viability inhibition
cell viability inhibition [12]: effective cell viability inhibition
cell viability inhibition [13]: effective cell viability inhibition
morphological changes of cells (MDA-MB-231 [4]): Typical morphological changes of cell cycle arrest and apoptosis
cell viability inhibition [14]: effective cell viability inhibition
pIC50 (MDA-MB-231 [1]; [15]): 6.81

COc1c(NC(=O)Nc2ccc3[nH]c(-c4cccc(F)c4)nc3c2)ccc2c1C=CC(C)(C)O2 [Compound 1-10, 1-(2-(3-fluorophenyl)-1H-benzo[d]imidazol-5-yl)-3-(5-methoxy-2,2-dimethyl-2H-chromen-6-yl)urea]
pIC50 (MDA-MB-231 [1]; MDA-MB-231, 72 hours): 6.08

COc1c(NC(=O)Nc2ccc3[nH]c(-c4ccc(Cl)cc4)nc3c2)ccc2c1C=CC(C)(C)O2 [Compound 1-11, 1-(2-(4-chlorophenyl)-1H-benzo[d]imidazol-5-yl)-3-(5-methoxy-2,2-dimethyl-2H-chromen-6-yl)urea]
pIC50 (MDA-MB-231 [1]; MDA-MB-231, 72 hours): 6.47

COc1c(NC(=O)Nc2ccc3[nH]c(-c4ccc(F)cc4F)nc3c2)ccc2c1C=CC(C)(C)O2 [Compound 1-19, 1-(2-(2,4-difluorophenyl)-1H-benzo[d]imidazol-5-yl)-3-(5-methoxy-2,2-dimethyl-2H-chromen-6-yl)urea]
pIC50 (MDA-MB-231 [1]; [15]): 5.97

COc1ccc(-c2nc3cc(NC(=O)Nc4ccc5c(c4OC)C=CC(C)(C)O5)ccc3[nH]2)cn1 [Compound 1-15, 1-(5-methoxy-2,2-dimethyl-2H-chromen-6-yl)-3-(2-(6-methoxypyridin-3-yl)-1H-benzo[d]imidazol-5-yl)urea]
pIC50 (MDA-MB-231 [1]; MDA-MB-231, 72 hours): 6.34

COc1cc(-c2nc3cc(NC(=O)Nc4ccc5c(c4OC)C=CC(C)(C)O5)ccc3[nH]2)cc(OC)c1OC [Compound 1-17, 1-(5-methoxy-2,2-dimethyl-2H-chromen-6-yl)-3-(2-(3,4,5-trimethoxyphenyl)-1H-benzo[d]imidazol-5-yl)urea]
pIC50 (MDA-MB-231 [1]; MDA-MB-231, 72 hours): 6.23

COc1c(NC(=O)Nc2ccc3[nH]c(-c4ccc(C)cc4)nc3c2)ccc2c1C=CC(C)(C)O2 [Compound 1-22, 1-(5-methoxy-2,2-dimethyl-2H-chromen-6-yl)-3-(2-(p-tolyl)-1H-benzo[d]imidazol-5-yl)urea]
cell viability inhibition [10]: effective cell viability inhibition
cell viability inhibition [11]: effective cell viability inhibition
cell viability inhibition [12]: effective cell viability inhibition
cell viability inhibition [13]: effective cell viability inhibition
morphological changes of cells (MDA-MB-231 [4]): Typical morphological changes of cell cycle arrest and apoptosis
cell viability inhibition [14]: effective cell viability inhibition
pIC50 (MDA-MB-231 [1]; [15]): 6.56

COc1c(NC(=O)Nc2ccc3[nH]c(-c4ccc(N(C)C)cc4)nc3c2)ccc2c1C=CC(C)(C)O2 [Compound 1-16, 1-(2-(4-(dimethylamino)phenyl)-1H-benzo[d]imidazol-5-yl)-3-(5-methoxy-2,2-dimethyl-2H-chromen-6-yl)urea]
pIC50 (MDA-MB-231 [1]; MDA-MB-231, 72 hours): 6.02
